In patent US20060148030A1, “Nuclear receptor err y 3” (FUJISAWA PHARMACEUTICAL CO., LTD, priority 2002, published 2006):

T1: PPARβ (Homo sapiens, UniProt Q03181)
T1 construct: expressed in transfected cells; host or cells: CV-1 (African green monkey kidney)
T1 sequence (Q03181 1-441): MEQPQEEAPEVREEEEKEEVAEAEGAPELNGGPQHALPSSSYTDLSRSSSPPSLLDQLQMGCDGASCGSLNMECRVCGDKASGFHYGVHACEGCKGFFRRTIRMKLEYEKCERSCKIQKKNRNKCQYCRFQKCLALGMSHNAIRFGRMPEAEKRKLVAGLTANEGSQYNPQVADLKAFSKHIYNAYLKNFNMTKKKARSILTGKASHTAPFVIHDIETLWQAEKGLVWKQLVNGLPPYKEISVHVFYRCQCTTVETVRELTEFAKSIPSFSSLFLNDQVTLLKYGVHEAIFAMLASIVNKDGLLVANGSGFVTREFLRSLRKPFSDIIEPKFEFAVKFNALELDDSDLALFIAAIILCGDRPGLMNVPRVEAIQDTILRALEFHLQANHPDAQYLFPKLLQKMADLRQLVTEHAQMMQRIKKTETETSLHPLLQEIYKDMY
T1 sequence (P19793 1-462 partner): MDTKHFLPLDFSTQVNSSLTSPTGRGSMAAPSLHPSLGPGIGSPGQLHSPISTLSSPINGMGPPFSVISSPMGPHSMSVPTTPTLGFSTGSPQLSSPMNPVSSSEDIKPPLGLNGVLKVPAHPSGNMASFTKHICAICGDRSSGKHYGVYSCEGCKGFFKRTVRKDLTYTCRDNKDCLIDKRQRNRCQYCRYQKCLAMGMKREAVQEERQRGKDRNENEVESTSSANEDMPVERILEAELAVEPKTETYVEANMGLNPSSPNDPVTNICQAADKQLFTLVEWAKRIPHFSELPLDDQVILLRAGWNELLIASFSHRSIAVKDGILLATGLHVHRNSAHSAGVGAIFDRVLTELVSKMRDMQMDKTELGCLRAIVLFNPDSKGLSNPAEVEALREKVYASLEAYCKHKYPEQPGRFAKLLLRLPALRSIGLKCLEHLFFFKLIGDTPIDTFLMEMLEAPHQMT


How the values were obtained:
ERRγ2 = conditions: stated as known property; cited from earlier work
PPARβ = biological target: T1, PPARβ; test: Reporter gene assay, ERRγ3 coexisted with PPARβ, pGVP2-PPRE1 in CV-1 cells; assay type: cell-based; conditions: 10^−5 M carbacyclin, FIG. 24
Experimental: Transfection was performed as follows: CV-1 cells were resuspended in DMEM supplemented with 10% fetal bovine serum, 2000 U/l of penicillin G, and 100 mg/l of streptomycin to a concentration of 2×10^5 cells/2.5 ml. This was then seeded to a 6-well plate at 2.5 ml per well, and incubated for 18-24 hours in a CO2 incubator at 37° C. and 5% CO2. 1 μg of each of the expression plasmids for the transcription factors, the luciferase reporter plasmid, and another luciferase reporter plasmid used for normalization of the measured values (pRL-TK), were dissolved in Opti-MEM (Gibco BRL), to a total of 150 μl. […] Luciferase activity was measured using the Dual-Luciferase™ Reporter Assay System (Promega). […] The protocol for measurement was as follows: 50 μl of Luciferase Assay Reagent II was added to each well, stirred for 0.3 seconds, and measured for one second. 50 μl of Stop&Glo™ Reagent was then added, stirred for 0.3 seconds, and measured for one second. The measured values for firefly luciferase activity were corrected by dividing by the value for the Renilla luciferase activity, the internal control. Average values and standard errors were calculated from triplicate samples.
The effect of ligands on the function of ERRγ3 in enhancing the transcriptional activation function of peroxisome proliferator activated receptor (PPAR) α, β, or γ was evaluated using the reporter gene assay (FIG. 24). […]

Chain of ERRγ2 (P62508 whole entry): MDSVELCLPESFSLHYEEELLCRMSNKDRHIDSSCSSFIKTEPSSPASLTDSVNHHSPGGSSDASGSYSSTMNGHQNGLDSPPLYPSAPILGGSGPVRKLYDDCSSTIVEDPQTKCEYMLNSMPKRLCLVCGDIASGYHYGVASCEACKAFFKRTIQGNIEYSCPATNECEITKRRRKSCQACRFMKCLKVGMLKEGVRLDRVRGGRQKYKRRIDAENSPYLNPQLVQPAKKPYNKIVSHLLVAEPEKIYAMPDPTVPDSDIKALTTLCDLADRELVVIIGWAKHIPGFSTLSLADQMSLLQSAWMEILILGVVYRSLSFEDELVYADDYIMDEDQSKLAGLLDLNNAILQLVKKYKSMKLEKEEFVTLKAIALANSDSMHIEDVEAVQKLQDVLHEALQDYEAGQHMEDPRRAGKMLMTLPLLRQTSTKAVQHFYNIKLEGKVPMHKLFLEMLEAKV

Molecule | binding to ERRγ2 (ERRγ2) | modifying effect on the transcriptional stimulation activity of PPARβ (PPARβ)
4-hydroxytamoxifen [reference compound] | capable of binding | –
ERRγ3: novel ERRγ isoform, nuclear receptor protein of 396 amino acids (SEQ ID NO: 2) lacking part of the DNA binding domain (protein, listed as Homo sapiens) MSNKDRHIDSSCSSFIKTEPSSPASLTDSVNHHSPGGSSDASGSYSSTMNGHQNGLDSPPLYPSAPILGGSGPVRKLYDDCSSTIVEDPQTKCEYMLNSMPKRLCLVCGDIASGYHYGVASCEACKAFFKRTIQGVRLDRVRGGRQKYKRRIDAENSPYLNPQLAQPAKKPYNKIVSHLLVAEPEKIYAMPDPTVPDSDIKALTTLCDLADRELVVIIGWAKHIPGFSTLSLADQMSLLQSAWMEILILGVVYRSLSFEDELVYADDYIMDEDQSKLAGLLDLNNAILQLVKKYKSMKLEKEEFVTLKAIALANSDSMHIEDVEAVQKLQDVLHEALQDYEAGQHMEDPRRAGKMLMTLPLLRQTSTKAVQHFYNIKLEGKVPMHKLFLEMLEAKV | – | did not show any significant modifying effect
